Experimental data: PubChem BioAssay AID179 (DTP/NCI, 2004)
The source made the active and inactive calls.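 The calls were made as follows: active = compounds giving half or more protection of infected cells from virus-caused growth loss, again on retest; inactive = the rest.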 Where a SMILES comes first, the peptide text is derived from it. The star is where a group is joined. Cbz = O=C(OCc1ccccc1)*; OBn = c1ccc(CO*)cc1

Test system: CEM cells HIV-1 protection, formazan growth assay
Assay: NCI AIDS Antiviral Assay
Conditions: for IC50: measured here: growth of uninfected CEM cells
In short: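 CEM (human) cells, HIV-1 infected vs uninfected, 5-point dosing, formazan growth read-out. Retest threshold 50% protection.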

| Compound | EC50 | IC50 | outcome |
| --- | --- | --- | --- |
| O=C1[C@@H]2C(c3ccc(Br)cc3)=NO[C@@H]2C(=O)N1c1ccc(Cc2ccc(N3C(=O)[C@H]4C(c5ccc(Br)cc5)=NO[C@H]4C3=O)cc2)cc1 | > 9.55 µM | > 9.55 µM | – |
| CN(C)c1ccc2c(c1)C(=O)N(OS(=O)(=O)c1ccc([N+](=O)[O-])cc1)C2=O | > 47.9 µM | 20.4 µM | – |
| CCn1c(-c2ccc(C)cc2)cs/c1=N\C(P(=O)(O)O)P(=O)(O)O | > 50.1 µM | > 50.1 µM | – |
| CC(C)OC(=O)C1=C(O)c2ccccc2S(=O)(=O)N1C | > 832 µM | 56.2 µM | – |
| O=c1cnn(C2OC(CO)C(O)C(F)C2O)c(=O)[nH]1 (configuration not stated) | > 200 µM | > 200 µM | – |
| O=C(O)CC(NC(=O)/C(=C/c1ccccc1)NC(=O)c1ccccc1)C(=O)O (configuration not stated) | > 200 µM | > 200 µM | – |
| Cc1cccc2c(N)c3cccc(C(=O)NCC[N+]4(Cc5ccc([N+](=O)[O-])cc5)CCOCC4)c3nc12 | > 200 µM | 30.2 µM | – |
| O=C(O/N=c1/ccc(=O)/c(=N\OC(=O)c2ccccc2)c1=O)c1ccccc1 | > 200 µM | 47.9 µM | – |
| COC(=O)C(Cc1ccc(O)cc1)NC(=O)C(CC(=O)OCc1ccccc1)NC(=O)OCc1ccccc1 (configuration not stated) (Cbz-Asp(OBn)-Tyr-OMe; configuration not given here) | > 200 µM | 30.9 µM | – |
| CN1C(=O)Cn2c(n[nH]c(=O)c2=O)-c2cc(Cl)ccc21 | > 302 µM | > 302 µM | – |
| CCN(CC)CCC(=O)c1ccc(OC)cc1 | > 912 µM | 19.5 µM | – |
| C/C(C=C(C#N)C#N)=C\c1ccc(N(C)C)cc1 | > 21.9 µM | > 21.9 µM | – |
| CCN(CC)CC(=O)Nc1ccc(Cl)cc1Cc1ccccc1 | > 200 µM | 91.2 µM | – |
| COc1ccc(C(=O)Nc2sc(SC)nc2C(N)=O)cc1 | > 200 µM | > 200 µM | – |
| CCOC(=O)C1C2CCC(C2=C(c2ccccc2)c2ccccc2)C1C(=O)O (configuration not stated) | > 234 µM | 102 µM | – |
| O=P1(Oc2ccccc2)Nc2cc(Cl)ccc2S1 (configuration not stated) | > 45.7 µM | 22.4 µM | – |
| O=C(N=Nc1ccccc1Cl)NNc1ccccc1Cl | > 200 µM | 31.6 µM | – |
| CN1Cc2cc3c(cc2-c2ccccc21)OCO3 | 269 µM | 282 µM | – |
| Cc1ccc(-n2c3nc(=O)n(C)c(=O)c-3nc3ccccc32)cc1 | – | – | inactive |
| c1cc2c(s1)CCC/C2=N\N=C1/CCCc2sccc21 | – | – | inactive |
| CCOC(=O)C(NC(C)=O)[CH](c1ccc(OC)cc1)[Sn]([c]1ccccc1)([c]1ccccc1)[c]1ccccc1 (configuration not stated) | > 200 µM | 1.07 µM | – |
| CCN(CC)c1cc2oc(=O)cc(C)c2cc1NC(=O)c1cc(N)cc(N)c1 | > 100 µM | 19.5 µM | – |

| Compound | EC50 | IC50 | outcome |
| --- | --- | --- | --- |
| O=c1/c(=C/c2ccccc2)sc2nc(-c3ccccc3)nn12 | > 200 µM | > 200 µM | – |
| Nc1ncnc2c1ncn2C1CC(O)C(CO)(C(F)(F)F)O1 (configuration not stated) | > 200 µM | 61.7 µM | – |
| N#CCCN(CCC#N)c1ccc(/C=C2\N=C(c3ccccc3)N(NC(N)=S)C2=O)cc1 | > 200 µM | > 200 µM | – |
| Nc1nc(Cl)c(N)c(NCC2(CO)CC(Cc3ccccc3)C2)n1 (configuration not stated) | > 200 µM | 19.5 µM | – |
| CCOC(=O)c1nc2ccc(OC)cc2c2c1Cc1ccccc1-2 | > 22.4 µM | > 22.4 µM | – |
| Fc1cc(-c2ncc(Cl)cc2Cl)c2cccccc1-2 | > 100 µM | > 100 µM | – |
| CC1CN=C(N(C(=O)Nc2ccccc2)C2CCCCC2)S1 (configuration not stated) | – | – | inactive |
| CC(=O)Oc1ccc2c(c1)Oc1cc(OC(C)=O)ccc1C21OC(=O)c2ccccc21 | > 200 µM | – | – |
| CCC(C(=O)NC1CN2CCC1CC2)c1ccccc1 (configuration not stated) | > 200 µM | 174 µM | – |
| O=C1NC(=S)N/C1=C\c1cc2c(=O)c3ccccc3sc2s1 | 75.9 µM | 81.3 µM | – |
| CCOC(=O)c1cccc([N+](=O)[O-])c1N | > 200 µM | > 200 µM | – |
| CC1=CC(O)CC(C)(C)C1/C=C/C(C)=C/C=C/C(C)=C/C=C/C=C(C)/C=C/C=C(C)/C=C/C1=C(C)CC(O)CC1(C)C (configuration not stated) | > 200 µM | 33.9 µM | – |
| COc1cccc(C2c3cc4c(cc3OC3COC(=O)C32)OCO4)c1OC (configuration not stated) | > 200 µM | 120 µM | – |
| C=C1CC(C)(COc2ccc3c(C)c(C)c(=O)oc3c2C)OC1=O (configuration not stated) | > 2 µM | 0.891 µM | – |
| Clc1cc(Cl)c2n[se]nc2c1 | – | – | inactive |
| COc1cccc(C2SCC(=O)N2c2ccc(-n3c(-c4ccccc4)nc4ccccc4c3=O)cc2)c1OC (configuration not stated) | > 200 µM | > 200 µM | – |
| O=C(O)CSc1n[nH]c(-c2ccc(O)cc2)n1 | > 1000 µM | 977 µM | – |
| CCOC(=O)N1CCC(=O)C(CNC23CC4CC(CC(C4)C2)C3)C1 (configuration not stated) | > 4170 µM | 204 µM | – |
| COc1cccc(OC)c1/C=N\N1C(=O)c2ccccc2C1=O | > 115 µM | 12 µM | – |
| COc1c2c(c(Cl)c3ccc(=O)oc13)CCO2 | > 70.8 µM | > 70.8 µM | – |
| O=c1c2cc(Br)ccc2[nH]c(=S)n1-c1ccc(Br)cc1 | > 45.7 µM | > 45.7 µM | – |
| C1CSCCSCCSCCSC1 | > 38.9 µM | > 38.9 µM | – |

| Compound | EC50 | IC50 | outcome |
| --- | --- | --- | --- |
| C[Si](C)(C)/C=C\CCNCc1ccccc1 | > 776 µM | > 776 µM | – |
| C=CCN1CCC(O)(c2cc(C(=O)OCC)[nH]c2-c2cc(C)no2)C1 (configuration not stated) | > 200 µM | > 200 µM | – |
| CN=c1c2c(c3[nH]c4ccccc4c4cnc1c34)NCCC2=O | > 200 µM | 1.41 µM | – |
| CC[C@@]1(O)C(=O)OCc2c1cc1n(c2=O)Cc2cc3c(OC)cccc3nc2-1 | > 0.1 µM | 0.0141 µM | – |
| Cc1cc(-c2ccc[nH]2)on1 | > 200 µM | > 200 µM | – |
| O=C(OCc1ccccc1)N1CC[C@@H](O)[C@H]1CO | > 200 µM | > 200 µM | – |
| C/C=C1\CN2CCc3c([nH]c4ccccc34)C2C=C1CCO (configuration not stated) | > 170 µM | > 170 µM | – |
| COc1ccc(OCC(=O)O)c2c1CCCC2=O | – | – | inactive |
| OC1(c2ccc(Cl)cc2)c2ccccc2-c2nc3ccccc3n21 (configuration not stated) | > 200 µM | 174 µM | – |
| ON(CCc1ccccn1)CCc1ccccn1 | > 200 µM | > 200 µM | – |
| COc1ccc2c(c1[N+](=O)[O-])CC[C@@H]1[C@@H]2CC[C@]2(C)C(=O)CC[C@@H]12 | > 11 µM | > 11 µM | – |
| O=C(c1ccc(Cl)cc1)N(C(=S)N1CCN(c2ccccc2)CC1)c1ccccc1 | > 12 µM | 11.2 µM | – |
| Cc1nc(N(CCO)CCO)c2sc(=S)n(-c3ccccc3)c2n1 | > 10.5 µM | > 10.5 µM | – |
| COc1cc2c(Cc3cc(OCc4ccccc4)ccc3N)nccc2c(OC)c1OC | – | – | inactive |
| CCCCCC=C(c1cc(F)c(OC)c(C(=O)OC)c1)c1cc(F)c(OC)c(C(=O)OC)c1 | > 200 µM | 115 µM | – |
| CCOC(=O)Nc1cc2nnc(-c3ccccc3)nc2c(N)n1 | – | – | inactive |
| Cc1ccc(-c2n[nH]c(=O)n2N2C(=O)C=CC2=O)cc1 | 49 µM | 501 µM | – |
| CC1(C)CCCCCCC2CC2CCCCCC(C)(C)C1=O (configuration not stated) | > 200 µM | 105 µM | – |
| S=C(SSSSC(=S)N(C1CCCCC1)C1CCCCC1)N(C1CCCCC1)C1CCCCC1 | > 200 µM | 126 µM | – |
| CCC1C/C(=N\N=C2CC(C)(C)NC(C)(C)C2)CC(C)(C)N1 (configuration not stated) | > 200 µM | > 200 µM | – |
| CC(=O)NNc1nc(C)c(C(=O)NNC(=O)C(=O)Nc2ccc([N+](=O)[O-])cc2[N+](=O)[O-])s1 | > 204 µM | 38 µM | – |
| CCOC(=O)c1ccc(CSc2ccccc2C(=O)O)cc1 | > 16.6 µM | > 16.6 µM | – |

| Compound | EC50 | IC50 | outcome |
| --- | --- | --- | --- |
| Fc1cccc(F)c1C1SCc2nc3cc(Cl)ccc3n21 (configuration not stated) | > 200 µM | 182 µM | – |
| CC(NC(=O)N(C)C)NC(=O)N(C)C | – | – | inactive |
| Cc1cc(O)cc(C)c1Cl | 162 µM | > 200 µM | – |
| C/C(=C1/N=C(c2cc([N+](=O)[O-])ccc2Cl)N(c2ccc(Br)cc2)C1=O)c1cc2ccccc2oc1=O | > 24 µM | – | – |
| COc1ccc(/C=C2\CCC(C)C3=C2N=c2s/c(=C/c4cccc(Br)c4)c(=O)n2C3c2ccc(OC)c(OC)c2)cc1OC (configuration not stated) | > 50.1 µM | > 50.1 µM | – |
| CC(C)CC1[C@@H](OCc2ccccc2)COS(=O)N1Cc1ccccc1 (some centres not stated) | > 200 µM | 26.3 µM | – |
| Cc1cc2c3c(c1)C(=O)CCN3CCC2=O | – | – | inactive |
| CSC12c3cc(C)n(-c4ccc(I)cc4)c3CC(C)(C)CN1C(=O)C2Oc1ccccc1 (configuration not stated) | > 200 µM | 75.9 µM | – |
| [C-]#[O+].[C-]#[O+].[C-]#[O+].[Mo].c1ccc(P(CC[PH+](CC[PH+](CC[PH+](c2ccccc2)c2ccccc2)c2ccccc2)c2ccccc2)c2ccccc2)cc1 (configuration not stated) | > 6.17 µM | > 6.17 µM | – |
| COc1ccc(N2CC(=O)N(C(=O)COc3ccc(OCC(=O)N4C(=O)CN(c5ccc(OC)cc5)C4=S)cc3)C2=S)cc1 | > 200 µM | 87.1 µM | – |
| COC(=O)[C@H](Cc1ccc(O)cc1)NC(=O)[C@H](Cc1ccc(O)cc1)NC(=O)OC(C)(C)C (HELM PEPTIDE1{[CC(C)(C)OC(=O)[*:2]].Y.Y.[CO[*:1]]}$$$$V2.0) | > 200 µM | 93.3 µM | – |
| COc1ccc2c(c1)OC[C@@H]1c3ccc(OCc4ccccc4)cc3O[C@H]21 | 46.8 µM | > 200 µM | – |
| N#CC(/C=C/c1ccccc1)Nc1ccccc1N (configuration not stated) | > 28.8 µM | > 28.8 µM | – |
| CCc1c(C)c(C#N)c(=S)n(C2OC(COC(C)=O)C(OC(C)=O)C(OC(C)=O)C2OC(C)=O)c1-c1ccccc1 (configuration not stated) | > 200 µM | 102 µM | – |
| COc1ccc(NC(=O)C(=O)C2NC(=S)NC2=O)c(OC)c1 (configuration not stated) | > 776 µM | > 776 µM | – |
| CC(Cc1cccc2c1Nc1ccccc1S2)N(C)CCO (configuration not stated) | > 200 µM | 33.9 µM | – |
| O=C1N(Cl)C2(c3ccccc3)N(Cl)C(=O)N(Cl)C2(c2ccccc2)N1Cl (configuration not stated) | > 200 µM | > 200 µM | – |
| C#CC1(O)c2ccccc2C(=O)c2ccccc21 | – | – | inactive |
| CCC12CCCN(CCBr)C1c1c(n(C)c3ccccc13)C(C(=O)OC)C2 (configuration not stated) | > 27.5 µM | 13.5 µM | – |
| Cc1ccc(S(=O)(=O)Sc2nnnn2C)cc1 | > 251 µM | 53.7 µM | – |
| N#CCCN(CCC#N)c1ccc(/C=C2\N=C(c3cc([N+](=O)[O-])ccc3Cl)N(NC(=O)CC(=O)Nc3ccccc3Cl)C2=O)cc1 | > 11 µM | > 11 µM | – |
